Test results taken from the NIST ThermoML archive (doi:10.1021/je800463k).

Test: mn = molality of the nth substance listed, in mol/kg
Settings: 101 kPa, Liquid; for electrical conductivity: Frequency=0.001 MHz, Alternating current cell with electrodes; for speed of sound: Frequency=2 MHz; for mass density: Pycnometric method

CC(=O)[O-].CC(=O)[O-].[Mg+2] [magnesium acetate] + CO
Settings	electrical conductivity [S/m]	mass density [kg/m3]	speed of sound [m/s]	viscosity [mPa·s]
273.15 K, m1 = 0.0059	0.0325	–	1185.9	–
273.15 K, m1 = 0.0093	0.055	–	1186.1	–
273.15 K, m1 = 0.014	–	–	–	0.821
273.15 K, m1 = 0.018	0.0621	–	1186.2	0.8229
273.15 K, m1 = 0.0339	0.0796	–	–	0.8417
273.15 K, m1 = 0.053	0.0922	–	1190.2	–
273.15 K, m1 = 0.0646	0.0965	–	–	0.8642
273.15 K, m1 = 0.0855	0.106	–	1190.1	–
273.15 K, m1 = 0.1012	–	–	–	0.9108
273.15 K, m1 = 0.1024	0.1148	–	1194.5	–
273.15 K, m1 = 0.13	–	–	–	0.9308
273.15 K, m1 = 0.1402	0.1289	–	1194.6	0.9493
273.15 K, m1 = 0.1455	0.1307	–	1192.6	–
273.15 K, m1 = 0.17	–	–	–	0.9637
273.15 K, m1 = 0.1837	0.1414	–	1195.3	–
273.15 K, m1 = 0.2003	–	–	–	0.9889
273.15 K, m1 = 0.2192	–	–	1196.7	–
273.15 K, m1 = 0.2422	0.1507	–	1196.9	1.042
273.15 K, m1 = 0.2453	–	–	–	1.036
273.15 K, m1 = 0.2889	0.1565	–	1197.1	1.091
273.15 K, m1 = 0.3042	–	–	1199.6	–
278.15 K, m1 = 0.0059	0.0329	–	1169.1	–
278.15 K, m1 = 0.0093	0.0556	–	1169.4	–
278.15 K, m1 = 0.014	–	–	–	0.7547
278.15 K, m1 = 0.018	0.0627	–	1170	0.7565
278.15 K, m1 = 0.0339	0.0807	–	–	0.7732
278.15 K, m1 = 0.053	0.0937	–	1172.6	–
278.15 K, m1 = 0.0646	0.0989	–	–	0.7927
278.15 K, m1 = 0.0855	0.1084	–	1176.6	–
278.15 K, m1 = 0.1012	–	–	–	0.8332
278.15 K, m1 = 0.1024	0.1174	–	1176.8	–
278.15 K, m1 = 0.13	–	–	–	0.8509
278.15 K, m1 = 0.1402	0.1326	–	1177.7	0.867
278.15 K, m1 = 0.1455	0.135	–	1175	–
278.15 K, m1 = 0.17	–	–	–	0.8812
278.15 K, m1 = 0.1837	0.1448	–	1179.3	–
278.15 K, m1 = 0.2003	–	–	–	0.9025
278.15 K, m1 = 0.2192	–	–	1181	–
278.15 K, m1 = 0.2422	0.153	–	1179.9	0.9469
278.15 K, m1 = 0.2453	–	–	–	0.9437
278.15 K, m1 = 0.2889	0.1605	–	1180.9	0.9892
278.15 K, m1 = 0.3042	–	–	1181.7	–
283.15 K, m1 = 0.0059	0.0334	–	1152.8	–
283.15 K, m1 = 0.0093	0.0562	–	1153.2	–
283.15 K, m1 = 0.014	–	–	–	0.6979
283.15 K, m1 = 0.018	0.0634	–	1154.7	0.6998
283.15 K, m1 = 0.0339	0.0818	–	–	0.7143
283.15 K, m1 = 0.053	0.0954	–	1156.3	–
283.15 K, m1 = 0.0646	0.1008	–	–	0.7304
283.15 K, m1 = 0.0855	0.1089	–	1156.5	–
283.15 K, m1 = 0.1012	–	–	–	0.7669
283.15 K, m1 = 0.1024	0.1198	–	1160.3	–
283.15 K, m1 = 0.13	–	–	–	0.7824
283.15 K, m1 = 0.1402	0.1355	–	1160.4	0.7965
283.15 K, m1 = 0.1455	0.1388	–	1158.5	–
283.15 K, m1 = 0.17	–	–	–	0.8105
283.15 K, m1 = 0.1837	0.1465	–	1161.7	–
283.15 K, m1 = 0.2003	–	–	–	0.8289
283.15 K, m1 = 0.2192	–	–	1162.8	–
283.15 K, m1 = 0.2422	0.1656	–	1163.1	0.8664
283.15 K, m1 = 0.2453	–	–	–	0.8643
283.15 K, m1 = 0.2889	0.1642	–	1163.5	0.8961
283.15 K, m1 = 0.3042	–	–	1165.8	–
288.15 K, m1 = 0.0059	0.0341	–	1135.7	–
288.15 K, m1 = 0.0093	0.0566	–	1136.1	–
288.15 K, m1 = 0.014	–	–	–	0.6458
288.15 K, m1 = 0.018	0.0642	–	1137.4	0.6478
288.15 K, m1 = 0.0339	0.0831	–	–	0.6606
288.15 K, m1 = 0.053	0.0969	–	1138.1	–
288.15 K, m1 = 0.0646	0.1033	–	–	0.6743
288.15 K, m1 = 0.0855	0.1114	–	1139.7	–
288.15 K, m1 = 0.1012	–	–	–	0.7063
288.15 K, m1 = 0.1024	0.1227	–	1142.7	–
288.15 K, m1 = 0.13	–	–	–	0.7206
288.15 K, m1 = 0.1402	0.139	–	1144.3	0.7286
288.15 K, m1 = 0.1455	0.1428	–	1141.6	–
288.15 K, m1 = 0.17	–	–	–	0.7465
288.15 K, m1 = 0.1837	0.1496	–	1143.8	–
288.15 K, m1 = 0.2003	–	–	–	0.7639
288.15 K, m1 = 0.2192	–	–	1147.5	–
288.15 K, m1 = 0.2422	0.1673	–	1146.4	0.7865
288.15 K, m1 = 0.2453	–	–	–	0.7929
288.15 K, m1 = 0.2889	0.1692	–	1147	0.8205
288.15 K, m1 = 0.3042	–	–	1149.4	–
293.15 K, m1 = 0.0059	0.0349	–	1119	–
293.15 K, m1 = 0.0093	0.0575	–	1118.9	–
293.15 K, m1 = 0.014	–	–	–	0.6
293.15 K, m1 = 0.018	0.0649	–	1120.9	0.6022
293.15 K, m1 = 0.0339	0.0843	–	–	0.6132
293.15 K, m1 = 0.053	0.0985	–	1121.1	–
293.15 K, m1 = 0.0646	0.1055	–	–	0.6249
293.15 K, m1 = 0.0855	0.1149	–	1122.8	–
293.15 K, m1 = 0.1012	–	–	–	0.6535
293.15 K, m1 = 0.1024	0.1258	–	1126	–
293.15 K, m1 = 0.13	–	–	–	0.666
293.15 K, m1 = 0.1402	0.1426	–	1128.4	0.6731
293.15 K, m1 = 0.1455	0.1463	–	1124.4	–
293.15 K, m1 = 0.17	–	–	–	0.6902
293.15 K, m1 = 0.1837	0.1536	–	1127.3	–
293.15 K, m1 = 0.2003	–	–	–	0.7039
293.15 K, m1 = 0.2192	–	–	1130.4	–
293.15 K, m1 = 0.2422	0.1693	–	1129.6	0.7255
293.15 K, m1 = 0.2453	–	–	–	0.7305
293.15 K, m1 = 0.2889	0.1735	–	1131.7	0.7548
293.15 K, m1 = 0.3042	–	–	1132.6	–
296.65 K, m1 = 0.1112	–	798.51	–	–
297.55 K, m1 = 0.2192	–	803.53	–	–
298.15 K, m1 = 0.0059	0.0355	–	1102.5	–
298.15 K, m1 = 0.0093	0.058	–	1102	–
298.15 K, m1 = 0.014	–	–	–	0.5583
298.15 K, m1 = 0.018	0.0656	–	1103.5	0.5605
298.15 K, m1 = 0.0339	0.0856	–	–	0.5703
298.15 K, m1 = 0.053	0.1	–	1104.6	–
298.15 K, m1 = 0.0646	0.108	–	–	0.5802
298.15 K, m1 = 0.0855	0.1183	–	1106.7	–
298.15 K, m1 = 0.1012	–	–	–	0.6059
298.15 K, m1 = 0.1024	0.1284	–	1109.8	–
298.15 K, m1 = 0.13	–	–	–	0.617
298.15 K, m1 = 0.1402	0.1458	–	1111.6	0.6234
298.15 K, m1 = 0.1455	0.1485	–	1108.4	–
298.15 K, m1 = 0.17	–	–	–	0.6396
298.15 K, m1 = 0.1837	0.1578	–	1110.9	–
298.15 K, m1 = 0.2003	–	–	–	0.6529
298.15 K, m1 = 0.2192	–	–	1113.4	–
298.15 K, m1 = 0.2422	0.1717	–	1112.7	0.6701
298.15 K, m1 = 0.2453	–	–	–	0.6746
298.15 K, m1 = 0.2889	0.1776	–	1115.2	0.6956
298.15 K, m1 = 0.3042	–	–	1116.1	–
298.5 K, m1 = 0.0646	–	793.38	–	–
299 K, m1 = 0.0339	–	790.63	–	–
299.1 K, m1 = 0.014	–	788.94	–	–
299.25 K, m1 = 0.1798	–	800.6	–	–
299.3 K, m1 = 0.2192	–	801.81	–	–
299.35 K, m1 = 0.1112	–	795.95	–	–
